Assay results: patent publication US10420770B2, “Compositions and methods for treating dementia” (EIP Pharma, LLC, priority 2016, dated 2019)
“And” between values parts separate entries of the source, which are not always exact repeats. Identical values can stand only once.

How the values were obtained:
[1] = test system: patients with mild cognitive impairment (MCI) due to Alzheimer's disease (AD) or with mild AD; experiment: Wechsler Memory Scale (WMS) immediate and delayed recall, 12-week study (Example 1); format: in vivo, human; settings: for patients with improvement from baseline, WMS delayed recall composite score / patients with improvement from baseline, WMS immediate recall composite score: day 84
Description: In this study, episodic memory was evaluated using the Dutch version of the WMS scale utilizing both verbal and visual information: Logical Memory (LM I & II) test, in which subject is read a story; Verbal-Paired Associates (VPA I & II), in which subject is given pairs of words and asked remember which words go together; and Visual Reproduction (VR I & II)), in which subject is given drawings of specific shapes. Subjects were then asked to recall the information within each test both in an immediate (WMS-Immediate Recall composite) and delayed (WMS-Delayed Recall composite) basis. The total score of the WMS-Immediate Recall component could range from 0 to 136 (0-53 for LMI; 0-40 for VPA I, and 0-43 VR I) and for the WMS-Delayed Recall from 0 to 92 (0-39 for LM II; 0-10 for VPA II, and 0-43 VR II).
Further analysis included Wechsler Memory Scale (WMS) Analyses. The WMS includes three subcategories: immediate recall, delayed recall, and symbol span, each with distinct assessments. Results can be analyzed as two distinct composites scores or as an overall composite score. This evaluation included the overall (score range: 0 to 401), immediate recall (score range: 0 to 136), and delayed recall (score range: 0 to 92) composite scores; the latter two are considered measures of episodic memory. In addition, the Symbol Span sub-component of WMS was analyzed separately (score range: 0 to 50). In all cases, higher scores reflect better cognitive performance.

[2] = Brain versus blood exposure in animals (preclinical PK); format: in vivo; settings: brain relative to peripheral blood, read-out: exposure in the brains of animals relative to peripheral blood
[3] = Plasma and CSF pharmacokinetics, 6-week Phase IIa study (Example 2); format: in vivo, human
Description: Investigators and patients were blinded to the dosage strength. The first 3 patients were randomly assigned to receive either 40 or 125 mg twice daily, with dosing level blinded. The remaining patients (up to 7 patients) received 40 mg twice daily on an open-label basis. […] Patients were instructed to eat a meal approximately 30 minutes before dosing with VX 745 with each dose taken approximately 12 hours (+/−3 hours) apart at the same times each day throughout the study.
Quantitative EEG was conducted as a measure of the effects of inflammatory cytokines on synaptic function and the effects of modulation of p38 MAPK on synaptic plasticity. Brain fluorodeoxyglucose (FDG) PET scan was conducted at the Screening Visit and Day 40 to measure brain metabolism. In addition, CSF drug levels of VX-745 were obtained to confirm delivery of drug to the brain.

[4] = test system: interleukin-8 (IL-8); experiment: CSF cytokine measurement (Mesoscale Discovery), IL-8, 6-week study; format: in vivo, human; settings: high exposure group by plasma AUC(0-8) on Day 1
Description: Cytokine measurements of CSF samples were done to assess the balance of pro-inflammatory versus anti-inflammatory cytokines. The t-helper type 1/t-helper type 2 (TH1/TH2) multiplex cytokine (IFN-γ, IL-1β, IL-2, IL-4, IL-5, IL-8, IL-10, IL-12p70, IL-13, TNFα ) panel by Mescoscale Discovery were utilized to inform on effects on the relative balance of pro-inflammatory cytokines (e.g. IL-1β, TNFα) versus anti-inflammatory cytokines (e.g., IL-10).
Target engagement was assessed through the evaluation of the effect of drug treatment on CSF biomarkers. CSF was collected at 6 time-points over 24 hours at baseline (the 24 hours prior to first dose) and again at 6 time-points over 24 hours near the end of treatment on Day 40. The samples were evaluated by the Mesoscale Discovery ELISA platform for multiple cytokines ((IFN-γ, IL-1β, IL-2, IL-4, IL-5, IL-8, IL-12 protein 70, IL-13, TNFα, and CSF) and for amyloid-beta peptides (Aβ 38/40/42).

[5] = test system: patients with mild cognitive impairment (MCI) due to Alzheimer's disease (AD) or with mild AD; experiment: Hopkins Verbal Learning Test-Revised (HVLT-R), 6-week study (Example 2); format: in vivo, human; settings: for HVLT-R Delayed Recall change from averaged baseline, Maximum / HVLT-R Delayed Recall change from averaged baseline, Median / HVLT-R Delayed Recall change from averaged baseline, Minimum / HVLT-R RDI change from averaged baseline, Maximum / HVLT-R RDI change from averaged baseline, Median / HVLT-R RDI change from averaged baseline, Minimum / HVLT-R Retention change from averaged baseline, Maximum / HVLT-R Retention change from averaged baseline, Median / HVLT-R Retention change from averaged baseline, Minimum / HVLT-R Total Recall change from averaged baseline, Maximum / HVLT-R Total Recall change from averaged baseline, Median / HVLT-R Total Recall change from averaged baseline, Minimum: n=8; for HVLT-R Delayed Recall change from averaged baseline, Arithmetic Mean / HVLT-R Retention change from averaged baseline, Arithmetic Mean / HVLT-R Total Recall change from averaged baseline, Arithmetic Mean: overall pharmacodynamic population n=8
Description: The Hopkins Verbal Learning Test-Revised (HVLT-R) was utilized to assess episodic memory. In this test, 12 specific words from a list were provided verbally, and the subject was asked to recall as many words as possible. Two scores are calculated: (i) Total (Immediate) Recall Score (range: 0-36): combined score of three consecutive trials immediately following provision of words and (ii) Delayed Recall Score (range: 0-12): Number of words recalled when subject was asked 20 to 25 minutes after initial trials to recall as many of the words originally provided. A strength of the HVLT-R is that six different validated version exist that each incorporate a different set of words. Due to the use of these different versions during the course of a clinical study, there is essentially no practice effect with repeated administration (Benedict, R. H. B. et al, “Hopkins Verbal Learning Test-Revised: Normative Data and Analysis of Inter-Form and Test-Retest Reliability” The Clinical Neuropsychologist, 12(1): 43-55 (1998)).

[6] = test system: neurofilament light chain (NFL); experiment: CSF neurofilament light chain (NFL), 6-week study; format: in vivo, human; settings: baseline to day 40
Description: Phospho-tau and NFL proteins from CSF sampling were evaluated as markers of the effects of inflammation on neurodegeneration and axonopathy, respectively.

[7] = Example 1 study (N = 15), Wechsler Memory Scale
[8] = Example 2 study (N = 8), HLVT-R

O=c1ncn2nc(Sc3ccc(F)cc3F)ccc2c1-c1c(Cl)cccc1Cl [VX-745]
patients with improvement from baseline, WMS delayed recall composite score ([1]; 40 mg group): 8 of 8 | patients with improvement from baseline, WMS immediate recall composite score ([1]; 40 mg group): 7 of 8 | patients with improvement from baseline, WMS delayed recall composite score ([1]; 125 mg group): 6 of 7 | patients with improvement from baseline, WMS immediate recall composite score ([1]; 125 mg group): 6 of 7 | change in all subcomponents of WMS episodic memory composites ([1]; Day 84): statistically significant (P<0.05) increases | Mean WMS delayed recall composite score ([1]; Day 84, combined doses, baseline 13.2 (±2.3), p<0.001): 22.1 (±4.1) | Mean WMS immediate recall composite score ([1]; Day 84, n=15 combined doses, baseline 48.4 (±3.8), p=0.005): 58.4 (±4.3) | Calculated within-subject treatment effect size (Cohen's d), Delayed Recall [1, 7]: .69 | Calculated within-subject treatment effect size (Cohen's d), Immediate Recall [1, 7]: .59 | WMS immediate and delayed recall, cognitive analysis ([1]; nearly all patients, regardless of effect on amyloid plaque): dose dependent improvement | Kp [2]: ~1.7 | average blood drug concentration (CAVG) ([3]; 40 mg twice daily): 8 ng/mL | expected VX-745 concentrations in the brain ([3]; extrapolated from CSF/plasma and preclinical data): ~14 ng/mL and ~30 nM | Kp ([3]; human, CSF relative to plasma, oral, same time point, read-out: CSF drug levels as share of plasma drug levels): 0.06 | half-life ([3]; human, oral, 6-week study plasma PK, read-out: terminal half-life (converted)): 10 h | Cmax ([3]; human, plasma, oral, 40 mg twice daily): 23 ng/mL | CSF IL-8, Day 41 vs baseline at matched time points [4]: trend towards lower CSF IL-8 | HVLT-R Delayed Recall change from averaged baseline, Maximum ([5]; Day 14): 4 | HVLT-R Delayed Recall change from averaged baseline, Median ([5]; Day 14): 1.0 | HVLT-R Delayed Recall change from averaged baseline, Minimum ([5]; Day 14): −3 | HVLT-R RDI change from averaged baseline, Maximum ([5]; Day 14): 5 | HVLT-R RDI change from averaged baseline, Median ([5]; Day 14): −0.3 | HVLT-R RDI change from averaged baseline, Minimum ([5]; Day 14): −3 | HVLT-R Retention change from averaged baseline, Maximum ([5]; Day 14): 35% | HVLT-R Retention change from averaged baseline, Median ([5]; Day 14): 6.3% | HVLT-R Retention change from averaged baseline, Minimum ([5]; Day 14): −37% | HVLT-R Total Recall change from averaged baseline, Maximum ([5]; Day 14): 6 | HVLT-R Total Recall change from averaged baseline, Median ([5]; Day 14): 0.0 | HVLT-R Total Recall change from averaged baseline, Minimum ([5]; Day 14): −2 | HVLT-R Delayed Recall change from averaged baseline, Arithmetic Mean ([5]; Day 14): 0.8 | HVLT-R Retention change from averaged baseline, Arithmetic Mean ([5]; Day 14): 3.8% | HVLT-R Total Recall change from averaged baseline, Arithmetic Mean ([5]; Day 14): 0.6 | HVLT-R Delayed Recall change from averaged baseline, Maximum ([5]; Day 40): 7 | HVLT-R Delayed Recall change from averaged baseline, Median ([5]; Day 40): 1.0 | HVLT-R Delayed Recall change from averaged baseline, Minimum ([5]; Day 40): 0 | HVLT-R RDI change from averaged baseline, Maximum ([5]; Day 40): 6 | HVLT-R RDI change from averaged baseline, Median ([5]; Day 40): 1.3 | HVLT-R RDI change from averaged baseline, Minimum ([5]; Day 40): −11 | HVLT-R Retention change from averaged baseline, Maximum ([5]; Day 40): 71% | HVLT-R Retention change from averaged baseline, Median ([5]; Day 40): 6.5% | HVLT-R Retention change from averaged baseline, Minimum ([5]; Day 40): −14% | HVLT-R Total Recall change from averaged baseline, Maximum ([5]; Day 40): 10 | HVLT-R Total Recall change from averaged baseline, Median ([5]; Day 40): 4.5 | HVLT-R Total Recall change from averaged baseline, Minimum ([5]; Day 40): −3 | HVLT-R Delayed Recall change from averaged baseline, Arithmetic Mean ([5]; Day 40): 2.1 | HVLT-R Retention change from averaged baseline, Arithmetic Mean ([5]; Day 40): 15.3% | HVLT-R Total Recall change from averaged baseline, Arithmetic Mean ([5]; Day 40): 3.5 | Calculated within-subject treatment effect size (Cohen's d), Delayed Recall [5, 8]: .86 | Calculated within-subject treatment effect size (Cohen's d), Immediate Recall [5, 8]: .69 | Median increase in HVLT-R Total Recall score ([5]; during 6-week treatment): 4.5 (range: −2.5 to +9.5) | HVLT-R Mean Total Recall score ([5]; week 6, Baseline 19.1 (±1.5), p=0.015): 22.6 (±2.1) | HVLT-R Delayed Recall score ([5]; week 6, baseline 5.4 (±0.6), P=0.028): 7.5 (±1.1) | CSF levels of neurofilament light chain (NFL) [6]: no change
